Among the test systems are 786-0; A549; CAKI-1; CCRF-CEM; DU-145; HT-29; KM12; MOLT-4; NCI-H226; OVCAR-5; SF-539; SK-MEL-5; SK-OV-3; SNB-19; T47D; U-251; UO-31; SNB-75; UACC-62.
What all share (test): DTP human tumour cell line panel, 48 h

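In this assay, cells in 96-well plates receive the compound at five concentrations for 48 hours. Endpoints are linearly interpolated between the surrounding concentrations. GI50: concentration for 50% inhibition of growth.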 Activity calls are given as the source filed them. Rule as the data show it: active = GI50 up to about 1.1 µM and inactive = higher. A value given as a limit tells only on which side of the number the result lay.

For the compound `C[C@]12CCC3c4ccc(O)cc4CC[C@H]3C1CC(=O)NC2=O` (stereo not given in full), the GI50 in the assay on 786-0, in the assay with A549, with CAKI-1, with CCRF-CEM, in the assay on DU-145 and with HT-29 was > 10 µM (inactive) each time. In addition, the GI50 in the assay with KM12, with MOLT-4, in the assay on NCI-H226, in the assay with OVCAR-5, with SF-539 and in the assay on SK-MEL-5 was > 10 µM (inactive) in each case. Further, the GI50 with SK-OV-3, with SNB-19, in the assay on T47D, in the assay on U-251 and in the assay with UO-31 was > 10 µM (inactive) in each case.
In the case of `COc1cccc(-c2nc(-c3cnccn3)n(Cc3ccccc3)n2)c1`, the GI50 was 69.5 µM (inactive) with 786-0; > 100 µM (inactive) in the assay on A549; > 100 µM (inactive) in the assay on CCRF-CEM; > 100 µM (inactive) in the assay with DU-145; > 100 µM (inactive) in the assay with HT-29; > 100 µM (inactive) in the assay on KM12. Also, the GI50 was > 100 µM (inactive) in the assay on MOLT-4; > 100 µM (inactive) in the assay on OVCAR-5; 85.1 µM (inactive) in the assay with SF-539; 89.3 µM (inactive) in the assay with SK-MEL-5; 75.9 µM (inactive) with SK-OV-3; 90.4 µM (inactive) in the assay on SNB-19. The GI50 with SNB-75 is 24.4 µM (inactive); with T47D, > 100 µM (inactive); in the assay with U-251 it was > 100 µM (inactive); in the assay on UACC-62 it was 91.4 µM (inactive); with UO-31, 73.5 µM (inactive).
On to `O=C(Nc1ccc(S(=O)(=O)Nc2ncccn2)cc1)c1c2ccccc2nc2ccccc12`, for which the GI50 with 786-0 was > 100 µM (inactive); with A549, > 100 µM (inactive); with CAKI-1 it was > 100 µM (inactive); in the assay on CCRF-CEM, > 10 µM (inactive); in the assay on DU-145 it was > 100 µM (inactive); in the assay on HT-29 it was > 100 µM (inactive). Further, the GI50 was > 100 µM (inactive) in the assay on KM12; > 100 µM (inactive) in the assay on MOLT-4; < 0.01 µM (active) in the assay on NCI-H226; > 100 µM (inactive) in the assay with OVCAR-5; > 100 µM (inactive) with SF-539; > 100 µM (inactive) in the assay with SK-MEL-5. Besides, the GI50 in the assay on SK-OV-3, in the assay with SNB-19, in the assay with SNB-75, in the assay on U-251, in the assay with UACC-62 and with UO-31 was > 100 µM (inactive) in each case.
For the compound `O=C1CCCC[C@H]1[C@H]1CCC[C@@H]([C@H]2CCCCC2=O)C1=O`, the GI50 with 786-0, in the assay on A549, in the assay on CAKI-1, with CCRF-CEM, with HT-29 and in the assay with KM12 was > 100 µM (inactive) throughout. In addition, the GI50 in the assay on MOLT-4, in the assay on NCI-H226, in the assay on OVCAR-5, with SF-539, in the assay with SK-MEL-5 and in the assay with SK-OV-3 was > 100 µM (inactive) throughout. For the same compound, the GI50 in the assay with SNB-19, in the assay with SNB-75, with U-251, with UACC-62 and with UO-31 was > 100 µM (inactive) each time.
On to `C/C(=N\Nc1ccccc1Br)c1cccc(/C(C)=N/Nc2ccccc2Br)n1`, for which the GI50 in the assay with 786-0 is 84.5 µM (inactive); with A549, > 100 µM (inactive); in the assay with CAKI-1, 49 µM (inactive); with CCRF-CEM it was > 100 µM (inactive); in the assay on DU-145, > 100 µM (inactive); in the assay with HT-29 it was > 100 µM (inactive). Besides, the GI50 was 52.6 µM (inactive) in the assay on KM12; > 100 µM (inactive) in the assay on MOLT-4; > 100 µM (inactive) in the assay with NCI-H226; > 100 µM (inactive) in the assay on OVCAR-5; 88.5 µM (inactive) with SF-539; > 100 µM (inactive) with SK-MEL-5. Further, the GI50 with SNB-19 is 63.1 µM (inactive); in the assay with SNB-75, 13 µM (inactive); in the assay with U-251, > 100 µM (inactive); with UO-31, > 100 µM (inactive).
For `OC1(c2ccccc2)CCCCCCCCC(O)(c2ccccc2)CCCCCCCC1` (stereo not given), the GI50 in the assay with 786-0, with A549, in the assay on CAKI-1, with DU-145, in the assay with HT-29 and in the assay with KM12 was > 100 µM (inactive) each time. For the same compound, the GI50 in the assay with OVCAR-5, in the assay on SF-539, in the assay with SK-MEL-5, in the assay with SK-OV-3, in the assay with SNB-19 and in the assay on SNB-75 was > 100 µM (inactive) in each case. For the same compound, the GI50 with T47D, in the assay with U-251, with UACC-62 and in the assay on UO-31 was > 100 µM (inactive) in each case.
`CCCCCCCC(=O)OCC1OC(n2cc(F)c(=O)[nH]c2=O)C(N)C(O)C1O` (stereo not given): the GI50 with 786-0, in the assay on A549, in the assay on CAKI-1, with CCRF-CEM, in the assay with HT-29 and in the assay on KM12 was > 100 µM (inactive) each time. The GI50 in the assay on MOLT-4, with NCI-H226, in the assay on OVCAR-5, in the assay with SF-539, with SK-MEL-5 and in the assay with SK-OV-3 was > 100 µM (inactive) in each case. Also, the GI50 in the assay with SNB-19, in the assay with SNB-75, with U-251, with UACC-62 and in the assay on UO-31 was > 100 µM (inactive) throughout.
Regarding `Cc1ccc(S(=O)(=O)CNC(=S)CCCC(=S)NCS(=O)(=O)c2ccc(C)cc2)cc1`, the GI50 in the assay on 786-0 was > 100 µM (inactive); with A549, > 100 µM (inactive); in the assay with CAKI-1, > 100 µM (inactive); in the assay on CCRF-CEM, 21.3 µM (inactive); in the assay with HT-29, > 100 µM (inactive); with KM12, > 100 µM (inactive). Besides, the GI50 was 22.2 µM (inactive) in the assay on MOLT-4; > 100 µM (inactive) with NCI-H226; > 100 µM (inactive) in the assay on OVCAR-5; > 100 µM (inactive) in the assay on SF-539; 79.1 µM (inactive) in the assay with SK-MEL-5; > 100 µM (inactive) in the assay with SK-OV-3. Besides, the GI50 in the assay with SNB-19 was > 100 µM (inactive); in the assay on SNB-75, > 100 µM (inactive); in the assay on U-251 it was 59 µM (inactive); in the assay with UACC-62 it was 44.3 µM (inactive); in the assay with UO-31 it was 35.2 µM (inactive).

One may read the GI50 as the concentration giving 50% growth inhibition.

(Values after ChEMBL document CHEMBL1201862, “PubChem BioAssay data set” (2004).)
